Reference: patent US11124495B2, “Tetrahydroisoquinolines and terahydronaphthyridines for the treatment of hepatitis B virus infection” (Hoffmann-La Roche Inc., priority 2016, dated 2021)

system: HBsAg; test: HBsAg assay (CLIA on supernatant of HepG2.2.15 cells); assay type: cell-based, HBV; conditions: Hepatitis B virus, HepG2.2.15, read-out: IC50 in HBsAg assay, HepG2.2.15 cells; HBsAg secretion reduced by 50% compared to the no drug control
Protocol: (§1) HepG2.2.15 cells (Acs et al. Proc Natl Acad Sci USA, 84, (1987), 4641-4), a constitutively HBV-expressing cell line were cultured in DMEM+Glutamax-I medium (Invitrogen, Carlsbad, Calif., USA), supplemented with 10% fetal bovine serum (Invitrogen) and G418 (Invitrogen) at a final concentration of 200 mg/L and maintained in 5% CO2 at 37° C.
HepG2.2.15 cells were seeded in duplicate into white, 96-well plates at 1.5×10^4 cells/well. The cells were treated with a three-fold serial dilution series of the compounds in DMSO. The final DMSO concentration in all wells was 1% and DMSO was used as no drug control.
The HBsAg chemiluminescence immunoassay (CLIA) kit (Autobio Diagnostics Co., Zhengzhou, China, Catalog number: CL0310-2) was used to measure the levels of secreted HBV antigens semi-quantitatively. For the detection 50 μL/well culture supernatant was used and HBsAg was quantified using HBsAg chemiluminescence immunoassay (CLIA) kit (Autobio Diagnostics Co., Zhengzhou, China, Catalog number: CL0310-2), 50 μL of the supernatant was transferred to the CLIA assay plate and 50 μL of enzyme conjugate reagent was added into each well. The plates were sealed and gently agitated for 1 hour at room temperature. The supernatant-enzyme-mixture was discarded and wells were washed 6 times with 300 μL of PBS. The residual liquid was removed by plating the CLIA plate right side down on absorbent tissue paper. 25 μL of substrates A and B were added to each well. Luminance was measured using a luminometer (Mithras LB 940 Multimode Microplate Reader) after 10 minutes incubation. Dose-response curves were generated and the IC50 value was extrapolated by using the E-WorkBook Suite (ID Business Solutions Ltd., Guildford, UK). The IC50 was defined as the compound concentration at which HBsAg secretion was reduced by 50% compared to the no drug control.
The compounds according to formula I were tested for their capacity to inhibit HBsAg as described herein.

c1cnc(-c2ncc(N3CCc4ccccc4C3)cn2)nc1 [Example 1, 2-(2-Pyrimidin-2-ylpyrimidin-5-yl)-3,4-dihydro-1H-isoquinoline] and Clc1ccc2c(c1)CCN(c1cnc(-c3ncccn3)nc1)C2 [Example 9, 6-Chloro-2-(2-pyrimidin-2-ylpyrimidin-5-yl)-3,4-dihydro-1H-isoquinoline] are within 1.5-fold of each other in IC50: 3170 nM for the first, 2520 nM for the second.

First: COc1cc2c(cc1OC)CN(c1cnc(-c3ncccn3)nc1)CC2 [Example 3, 6,7-Dimethoxy-2-(2-pyrimidin-2-ylpyrimidin-5-yl)-3,4-dihydro-1H-isoquinoline]
Second: COc1cc(F)cc2c1CCN(c1cnc(-c3ncccn3)nc1)C2 [Example 6, 7-Fluoro-5-methoxy-2-(2-pyrimidin-2-ylpyrimidin-5-yl)-3,4-dihydro-1H-isoquinoline]
The IC50 of the first is 5.1-fold higher: 2320 nM for the first, 454 nM for the second. The second is the more potent here.

First: COc1ccc2c(c1)CCN(c1cnc(-c3ncccn3)nc1)C2 [Example 4, 6-Methoxy-2-(2-pyrimidin-2-ylpyrimidin-5-yl)-3,4-dihydro-1H-isoquinoline]
Second: COc1ccc2c(c1)CN(c1cnc(-c3ncccn3)nc1)CC2 [Example 14, 7-Methoxy-2-(2-pyrimidin-2-ylpyrimidin-5-yl)-3,4-dihydro-1H-isoquinoline]
The IC50 of the first is 5.3-fold higher: 5200 nM for the first, 990 nM for the second.

First: COc1cc(F)c2c(c1)CN(c1cnc(-c3ncccn3)nc1)CC2 [Example 5, 5-Fluoro-7-methoxy-2-(2-pyrimidin-2-ylpyrimidin-5-yl)-3,4-dihydro-1H-isoquinoline]
Second: COc1cc(Cl)c2c(c1)CN(c1cnc(-c3ncccn3)nc1)CC2 [Example 31, 5-Chloro-7-methoxy-2-(2-pyrimidin-2-ylpyrimidin-5-yl)-3,4-dihydro-1H-isoquinoline]
The IC50 of the first is 5.2-fold higher: 355 nM for the first, 68 nM for the second. The second is the more potent here.

Compared with COc1cc(F)c2c(c1)C(C)N(c1cnc(-c3ncccn3)nc1)CC2 (stereo not shown) [Example 7, 5-Fluoro-7-methoxy-1-methyl-2-(2-pyrimidin-2-ylpyrimidin-5-yl)-3,4-dihydro-1H-isoquinoline], CCC1c2cc(OC)cc(F)c2CCN1c1cnc(-c2ncccn2)nc1 (stereo not shown) [Example 33, Ethyl-5-fluoro-7-methoxy-2-(2-pyrimidin-2-ylpyrimidin-5-yl)-3,4-dihydro-1H-isoquinoline] is 2.5-fold higher in IC50: 315 nM for the first, 790 nM for the second.

First: COc1cc(F)c2c(c1)CN(c1cnc(-c3ncccn3)cn1)CC2 [Example 8, 5-Fluoro-7-methoxy-2-(5-pyrimidin-2-ylpyrazin-2-yl)-3,4-dihydro-1H-isoquinoline]
Second: NC(=O)COc1cc(F)c2c(c1)CN(c1cnc(-c3ncccn3)nc1)CC2 [Example 28, 2-[[5-Fluoro-2-(2-pyrimidin-2-ylpyrimidin-5-yl)-3,4-dihydro-1H-isoquinolin-7-yl]oxy]acetamide]
The IC50 of the first is 19-fold lower: 445 nM for the first, 8520 nM for the second. The first is the more potent here.

Compared with COc1cc2c(cc1OC)CN(c1ccc(-c3ccccn3)nc1)CC2 [Example 10, 6,7-Dimethoxy-2-[6-(2-pyridyl)-3-pyridyl]-3,4-dihydro-1H-isoquinoline], Cc1ccc2c(c1)CN(c1cnc(-c3ncccn3)nc1)CC2 [Example 17, 7-Methyl-2-(2-pyrimidin-2-ylpyrimidin-5-yl)-3,4-dihydro-1H-isoquinoline] is 1.6-fold lower in IC50: 3120 nM for the first, 2010 nM for the second.

Going from COc1ccc2c(n1)CN(c1cnc(-c3ncccn3)nc1)CC2 [Example 12, 2-Methoxy-7-(2-pyrimidin-2-ylpyrimidin-5-yl)-6,8-dihydro-5H-1,7-naphthyridine] to COc1cc2c(cn1)CCN(c1cnc(-c3ncccn3)nc1)C2 [Example 13, 7-Methoxy-2-(2-pyrimidin-2-ylpyrimidin-5-yl)-3,4-dihydro-1H-2,6-naphthyridine], the IC50 falls from 5770 nM to 3700 nM (1.6-fold).

c1cnc(-c2ncc(N3CCc4ccc(C5CC5)cc4C3)cn2)nc1 [Example 15, 7-Cyclopropyl-2-(2-pyrimidin-2-ylpyrimidin-5-yl)-3,4-dihydro-1H-isoquinoline] and c1cnc(-c2ncc(N3CCc4cc(C5CC5)ccc4C3)cn2)nc1 [Example 24, 6-Cyclopropyl-2-(2-pyrimidin-2-ylpyrimidin-5-yl)-3,4-dihydro-1H-isoquinoline] are within 1.5-fold of each other in IC50: 1690 nM for the first, 1380 nM for the second.

First: CN(C)c1ccc2c(c1)CN(c1cnc(-c3ncccn3)nc1)CC2 [Example 16, N,N-Dimethyl-2-(2-pyrimidin-2-ylpyrimidin-5-yl)-3,4-dihydro-1H-isoquinolin-7-amine]
Second: CN(C)c1ccc2c(c1)CCN(c1cnc(-c3ncccn3)nc1)C2 [Example 23, N,N-Dimethyl-2-(2-pyrimidin-2-ylpyrimidin-5-yl)-3,4-dihydro-1H-isoquinolin-6-amine]
The IC50 of the first is 5.5-fold lower: 406 nM for the first, 2220 nM for the second. The first is the more potent here.

Going from CNc1ccc2c(c1)CN(c1cnc(-c3ncccn3)nc1)CC2 [Example 18, N-Methyl-2-(2-pyrimidin-2-ylpyrimidin-5-yl)-3,4-dihydro-1H-isoquinolin-7-amine] to Clc1ccc2c(c1)CN(c1cnc(-c3ncccn3)nc1)CC2 [Example 22, 7-Chloro-2-(2-pyrimidin-2-ylpyrimidin-5-yl)-3,4-dihydro-1H-isoquinoline], the IC50 falls from 4640 nM to 2040 nM (2.3-fold). The second is the more potent here.

Fc1cc(OCC(F)F)cc2c1CCN(c1cnc(-c3ncccn3)nc1)C2 [Example 19, 7-(2,2-Difluoroethoxy)-5-fluoro-2-(2-pyrimidin-2-ylpyrimidin-5-yl)-3,4-dihydro-1H-isoquinoline] and Fc1cc(OCC2CC2)cc2c1CCN(c1cnc(-c3ncccn3)nc1)C2 [Example 21, 7-(Cyclopropylmethoxy)-5-fluoro-2-(2-pyrimidin-2-ylpyrimidin-5-yl)-3,4-dihydro-1H-isoquinoline] are within 1.5-fold of each other in IC50: 255 nM for the first, 244 nM for the second.

Compared with N#Cc1ccc2c(c1)CN(c1cnc(-c3ncccn3)nc1)CC2 [Example 20, 2-(2-Pyrimidin-2-ylpyrimidin-5-yl)-3,4-dihydro-1H-isoquinoline-7-carbonitrile], N#Cc1cccc2c1CCN(c1cnc(-c3ncccn3)nc1)C2 [Example 25, 2-(2-Pyrimidin-2-ylpyrimidin-5-yl)-3,4-dihydro-1H-isoquinoline-5-carbonitrile] is 7.3-fold lower in IC50: 8640 nM for the first, 1190 nM for the second. The second is the more potent here.

Compared with COC1CN(c2ccc3c(c2)CN(c2cnc(-c4ncccn4)nc2)CC3)C1 [Example 26, 7-(3-Methoxyazetidin-1-yl)-2-(2-pyrimidin-2-ylpyrimidin-5-yl)-3,4-dihydro-1H-isoquinoline], c1cnc(-c2ncc(N3CCc4c(cccc4C4CC4)C3)cn2)nc1 [Example 29, 5-Cyclopropyl-2-(2-pyrimidin-2-ylpyrimidin-5-yl)-3,4-dihydro-1H-isoquinoline] is 4.9-fold higher in IC50: 1410 nM for the first, 6890 nM for the second.

Going from Fc1cccc2c1CCN(c1cnc(-c3ncccn3)nc1)C2 [Example 27, 5-Fluoro-2-(2-pyrimidin-2-ylpyrimidin-5-yl)-3,4-dihydro-1H-isoquinoline] to CN(C)c1cccc2c1CCN(c1cnc(-c3ncccn3)nc1)C2 [Example 30, N,N-Dimethyl-2-(2-pyrimidin-2-ylpyrimidin-5-yl)-3,4-dihydro-1H-isoquinolin-5-amine], the IC50 rises from 3030 nM to 43300 nM (14-fold). The first is the more potent here.

In the case of COc1cc(Cl)cc2c1CCN(c1cnc(-c3ncccn3)nc1)C2 [Example 32, 7-Chloro-5-methoxy-2-(2-pyrimidin-2-ylpyrimidin-5-yl)-3,4-dihydro-1H-isoquinoline], the IC50 is reported as 251 nM.

same assay, conditions: read-out: IC50 in HBsAg assay; HepG2.2.15 cells; HBsAg secretion reduced by 50% compared to the no drug control

For Fc1ccc2c(c1)CN(c1cnc(-c3ncccn3)nc1)CC2 [Example 2, 7-Fluoro-2-(2-pyrimidin-2-ylpyrimidin-5-yl)-3,4-dihydro-1H-isoquinoline], the IC50 was 22500 nM.
Molecule Fc1ccc2c(c1)CN(c1cnc(-c3ncccn3)nc1)CC2 [Example 11, 7-Fluoro-2-(2-pyrimidin-2-ylpyrimidin-5-yl)-3,4-dihydro-1H-isoquinoline] has an IC50 of 3890 nM.

system: HBV DNA; test: HBV DNA assay (real-time qPCR of extracellular HBV DNA, HepG2.2.15 cells); assay type: cell-based; conditions: Hepatitis B virus, 144 h, extracellular HBV DNA in supernatant, six days after treatment, read-out: IC50, anti HBV DNA production activity
Protocol: as §1
The assay employs real-time qPCR (TaqMan) to directly measure extracellular HBV DNA copy number in the cell supernatant. HepG2.2.15 cells were plated in 96-well microtiter plates before treatment with complete medium (DMEM, Glutamax, 10% FBS, 1% Penicillin/Streptomycin, 250 μg/mL Genetycin, final DMSO concentration is 1%). Only the interior wells were utilized to reduce “edge effects” observed during cell culture, the exterior wells were filled with complete medium to help minimize sample evaporation. […]

With COc1cc(F)c2c(c1)CN(c1cnc(-c3ncccn3)cn1)CC2 [Example 8, 5-Fluoro-7-methoxy-2-(5-pyrimidin-2-ylpyrazin-2-yl)-3,4-dihydro-1H-isoquinoline] the IC50 was 292 nM.
